Measured values reported in patent US7074807B2, “Compositions and methods for inducing cell death” (Georgetown University, priority 1998, dated 2006).

Legend:
[1] = previous in vitro studies, cited from earlier work
[2] = Kocherginsky et al., 1995; cited from earlier work
[3] = tested on: LNCaP cells; assay: Light and transmission electron microscopy of LNCaP cells; type: cell-based, human
Experimental: LNCaP cells ([…]) were seeded in 25 cm2 tissue culture flasks in RPMI medium containing 10% BCS overnight, followed by change to RPMI medium containing 5% BCS stimulation with 0.1% ethanol (control, 11A1, 11B1) or tempo (2.5 mM, 11A2, 11B2) for indicated times.
12A1, untreated, 4,000×; 12A2, a portion of the cell shown in 12A1, 20,000×; 12B1, 0.1% ethanol, 24 hr, 4,000×; 12B2, a portion of the cell shown in 12B1, 20,000×; 12C1, 5 mM tempo, 24 hr, 4,000×; 12C2, a portion of the cell shown in 12C1, […]; 12D, 5 mM tempo, 24 hr, a portion of another cell, 20,000×. M, mitrochondria; G, golgi apparatus; RER, rough endoplasmic reticulum; Cy, cytoplasm; N, nucleus; Arrow in panel C2 indicates swelling in the nuclear membrane.
LNCaP cells were treated with tempo as described in legend to FIG. 2. Following treatment, monolayer cells were washed three times with PBS, and fixed in 2.5% glutaraldehyde/3% paraformaldehyde in PBS. After fixation, the cell monolayer was washed in PBS. The cells were collected by gentle scraping using a rubber policeman, and centrifuged. The pellet was embedded in 1% agarose to facilitate handling. Post-fixation was performed in 1% osmium tetroxide in distilled water for 1 hr, followed by washing three times in distilled water, enbloc staining with 2% uranyl acetate for 30 min in dark, and washing three times in distilled water. […]

[4] = tested on: MDA-MB231 human breast tumor xenografts; assay: Tumor growth study, MDA-MB231 breast tumor xenografts in athymic mice; type: in vivo; details: 200 mg/kg intratumoral once daily for 8 days, vs 10% ethanol vehicle group
Experimental: FIGS. (13A), (13B1–13B2) illustrates the effects of tempo on the growth of human breast tumor xenografts in athymic mice. 13A. Tempo (200 mg/kg) was administered intratumorally once daily for a total of 8 days (*). Control group was treated simultaneously with an equal volume of ethanol (10%). Experiment was terminated when the control tumor volumes exceeded the recommended tumor burden. Each point represents mean q S.E. (n=4). […] (13B1–13B2). Representative tumor-bearing mice. Mice were treated with 10% ethanol (13B1) or tempo (13B2) as explained above.
MDA-MB231 cells (1×10^6) were inoculated subcutaneously in the right flank of 4–6 week-old female athymic mice. Tumor growth was monitored biweekly. Mice bearing tumor volumes in the range of 80–100 mm^3 were randomly selected for treatment. Tempo treatment was initiated (50 mg/kg–200 mg/kg, intratumoral, once daily, for a total of 8 days), and tumor volumes were measured for a total 25 days from the start of treatment.

[5] = tested on: SAPK/JNK; assay: SAPK/JNK1 activity (GST-cJun phosphorylation); type: cell-based, human; details: 10 mM, 2 h, vs tempol or 1% ethanol control
Experimental: FIGS. 5A, 5B, 5C. Tempo stimulates tyrosine phosphorylation and activity of SAPK. […] 5A. WCLs (1 mg) were immunoprecipitated with agarose-conjugated anti-SAPK antibody, followed by immunoblotting with anti-PY MAb. 5B. In other independent experiments, anti-SAPK immunoprecipitates were first probed with anti-PY MAb (top), and the blot was then reprobed with anti-SAPK antibody (bottom). 5C. […] WCLs were immunoprecipitated with anti-JNK1 antibody, and the JNK1 activity in immunoprecipitates was measured using GST-cJun (˜41 kDa) as a substrate. UT, untreated cells grown overnight in serum-free medium; CONT/Control, cells grown in serum-free medium overnight, and treated with 1% ethanol for 2 h.
ERK and SAPK/JNK Activities—Whole cell lysates prepared as described above were immunoprecipitated (1 mg) with an agarose conjugated anti-ERK1 antibody or an agarose conjugated anti-JNK1 antibody for 2 h at 4° C. with constant agitation. The immune-complexes were washed 3 times in lysis buffer and once in KBB as mentioned earlier. ERK or JNK activity assay was carried out according to manufacturer's procedures (UBI). […] The radioactive filters were washed and counted as described above. […] The radiolabeled GST-cJun fusion protein was detected by autoradiography.

SMILES	protection factor ([1]; 100 mM, radioprotection)	concentration required to provide radioprotection [1] [mM]	lipophilicity relative to tempol [2]	cell morphology at the light microscopic level ([3]; 2.5 mM)	cells with pronounced vacuolation throughout the cytoplasm ([3]; electron microscopy, 5 mM, 24 hr)	tumor growth rate [4]	increase in the phosphorylated GST-cJun fusion protein [5]
CC1(C)CC(O)CC(C)(C)N1[O] [tempol, 4-hydroxy-tempo, reference compound]	2.2	5 to 10	–	–	–	–	–
CC1(C)CCCC(C)(C)N1[O] [tempo, 2,2,6,6-tetramethylpiperidine-N-oxyl]	–	–	approximately 200 times	distinct change in cell morphology from spindle shaped, highly refractile appearance to a more flattened appearance	more than 90%	significant decline in tumor growth rate	3–7 fold
